Test results taken from US20260102387A1, “IMMUNOSUPPRESSIVE COMPOUNDS” (UNIVERSITÄT BASEL, priority 2022, published 2026).
“Also recorded” adds a separate entry of the source.

Key:
[1] = test system: coronin 1 promoter; assay: Fluorescence-based screening assay: coronin 1 promoter driven GFP in RBL cells (microplate reader / microscopy); assay type: cell-based; conditions: 48 h
Experimental: The murine coronin 1 promoter sequences of SEQ ID NO: 1-6 were each cloned into a plasmid lacking a promoter (promoterless) but containing a destabilized Green Fluorescence Protein (GFP) cassette. Rat Basophil Leukemia (RBL) cells were transfected with the plasmids, stable GFP expressing cells were enriched, incubated with various compounds and assessed for coronin 1 promoter inhibition by assessing green fluorescence values (FIG. 2).
The plasmids were independently transfected into immune cells (Rat basophil Leukemia, RBL cells) to generate green and red fluorescent RBL cells that were subsequently enriched by means of flow cytometry. These cells were then mixed in equal ratio (1:1) and incubated in a 96 well plate at 100,000 cells/well in a volume of 200 μl of phenol red free RPMI supplemented with 8% fetal calf serum, L-glutamate and antibiotics (penicillin, […]) from available chemical libraries. At defined time points (8 h, 24 h and 48 h), the GFP and RFP fluorescence was measured using a 96 well microplate reader (Synergy, BioTek Instruments). […] Selected compounds show different levels of modulation of coronin 1 promoter driven GFP and CMV promoter driven RFP fluorescence. GFP and RFP fluorescence were analyzed with a microplate reader upon incubation with the top coronin 1 promoter inhibiting compounds. Shown are percentage of GFP reduction (left column) and percentage of RFP reduction (right column) for the compounds at 5 μg/ml concentration at 48 h. Cycloheximide (CHX) serves as positive control whereas media and DMSO serve as negative controls. […] Cells were imaged using a fluorescence microscope to validate fluorescence inhibition (FIG. 3A) and as well assess morphology and viability (in addition to GFP down regulation confirmation). In addition, quantitative Polymerase Chain Reaction (qPCR) for coronin 1 mRNA transcripts reveal reduction with compound 11 (FIG. 3B). The primers used for the qPCR on RBL cells are listed below as follows;

[2] = test system: coronin 1 mRNA; assay: Quantitative PCR of coronin 1 mRNA in RBL cells; assay type: cell-based, Rat; conditions: 3.5 μg/ml, 7 days
Experimental: The plasmids were independently transfected into immune cells (Rat basophil Leukemia, RBL cells) to generate green and red fluorescent RBL cells that were subsequently enriched by means of flow cytometry. These cells were then mixed in equal ratio (1:1) and incubated in a 96 well plate at 100,000 cells/well in a volume of 200 μl of phenol red free RPMI supplemented with 8% fetal calf serum, L-glutamate and antibiotics (penicillin, streptomycin) and various compounds (3 and 5 μg/ml concentrations) from available chemical libraries. At defined time points (8 h, 24 h and 48 h), the GFP and RFP fluorescence was measured using a 96 well microplate reader (Synergy, BioTek Instruments). […] Selected compounds show different levels of modulation of coronin 1 promoter driven GFP and CMV promoter driven RFP fluorescence. GFP and RFP fluorescence were analyzed with a microplate reader upon incubation with the top coronin 1 promoter inhibiting compounds. […] Cells were imaged using a fluorescence microscope to validate fluorescence inhibition (FIG. 3A) and as well assess morphology and viability (in addition to GFP down regulation confirmation). In addition, quantitative Polymerase Chain Reaction (qPCR) for coronin 1 mRNA transcripts reveal reduction with compound 11 (FIG. 3B). […]

[3] = test system: coronin 1; assay: Western blotting of coronin 1 protein levels in RBL cells; assay type: cell-based, Rat; conditions: RBL cell lines, chemiluminescence imager
Experimental: buffer with 0.2% SDS containing protease and phosphatase inhibitors (Roche) at 4° C., followed by protein determination (BCA, Pierce) and SDS-PAGE with equal protein amounts transferred onto nitrocellulose and probed using antibodies against the indicated proteins (actin and coronin 1) followed by HRP-labeled secondary antibodies and developed using an enhanced chemi-luminescence imager (Fuji) (FIG. 3C).

[4] = test system: RBL cells; assay: In vitro toxicity, MTT assay; assay type: cell-based, Rat
Experimental: MTT assay was performed with 3-(4,5-dimethylthiazol-2-yl)-2,5-diphenyltetra-zolium bromide (MTT, Cayman chemicals) using the manufacturers protocol. In brief, RBL cells pretreated with coronin 1 expression inhibitor or vehicle controls were reseeded and cultured in a 96-well plate at a concentration of […] cells/ml of culture media, 10 μL of MTT was added and incubated for 4 h at 37° C. At the end, culture supernatant was removed and the formazan crystals were dissolved with 100 μl of crystal dissolving solution and the absorbance measured at 570 nm using a plate reader (Synergy) (FIG. 5B).

[5] = test system: coronin 1; assay: Coronin 1 Western blotting in human PBMCs; assay type: cell-based; conditions: 10 μg/ml, 5 days
Experimental: buffer with 0.2% SDS containing protease and phosphatase inhibitors (Roche) at 4° C., followed by protein determination (BCA, Pierce) and SDS-PAGE, transferred onto nitrocellulose and probed using antibodies against the indicated proteins (actin and coronin 1) followed by HRP-labeled secondary antibodies and developed using an enhanced chemi-luminescence imager (Fuji) (FIG. 8A).
Heparinized or EDTA treated blood or buffy coat from healthy volunteers were enriched for monocytes using the standard Histopaque 1.077 gradient centrifugation methodology. Post enrichment, the monocyte fraction was washed extensively with plain RPMI and subsequently counted and seeded in 96 well plate at a density of 0.2 million cells/well in a volume of 200 μl RPMI-1640 (Sigma) containing 1× penicillin and streptomycin (Gibco), 2 mM L-glutamine (Gibco), 10% heat inactivated FCS (PAA) and heparin 50 units/ml along with the vehicle (DMSO) or coronin 1 inhibitor at indicated concentrations. Cells were incubated in a 37° C. humidified incubator with a 5% CO2 for five days with the expression inhibitor and vehicle replenished in between at 48 hours post seeding by replacing 50% of the media. […]

Which results are given for `COC(=O)C1=C(C)NC2=C(C(=O)CC(c3ccccc3OC)C2)C1c1cccc(O)c1` (stereo not drawn) [Comp. 11, methyl-4-(3-hydroxyphenyl)-7-(2-methoxyphenyl)-2-methyl-5-oxo-1,4,5,6,7,8-hexahydro-3-quinolinecarboxylate]?
coronin 1 promoter driven GFP, imaged by microscope ([1]; 10 μg/ml, confocal microscope): selectively reduce GFP values; also recorded: selective reduction; activity at 5 µg/mL ([1]; RBL, 5 μg/ml, microplate reader, DMSO = 100, read-out: GFP values (%)): 35%; coronin 1 mRNA transcripts (qPCR) [2]: reduction in coronin 1 transcripts; coronin 1 depletion (Western blotting, protein level) [3]: ~80%; in vitro toxicity by MTT assay [4]: minimal toxicity; coronin 1 depletion in human PBMCs (Western blotting) [5]: coronin 1 depletion
